In ChEMBL document CHEMBL6153128, “Insights into the Activation Mechanism of HCA1, HCA2, and HCA3” (J Med Chem, 2025):
Each block holds one molecule with its values, some of them ahead of it. The source made the active and inactive calls. The rule behind the calls is not given here.

Experiments:
[1] = molecular target: T1, Hydroxycarboxylic acid receptor 1 (Homo sapiens, UniProt Q9BXC0); assay: Agonist activity at HCA1 (unknown origin); type: functional, cell-based, HEK293
[2] = test system: HEK293; assay: Agonist activity at HCA2 (1 to 129 residues)/HCA3 (130-)(unknown origin) expressed in HEK293 cells incubated for 90 mins by IP1 accumulation assay; type: cell-based; conditions: Homo sapiens
[3] = test system: HEK293; assay: Agonist activity at HCA3 (1 to 129 residues)/HCA2 (130-) S178I mutant (unknown origin) expressed in HEK293 cells incubated for 90 mins by IP1 accumulation assay; type: cell-based; conditions: Homo sapiens, filed as agonist
[4] = test system: HEK293; assay: Agonist activity at HCA2 (1 to 129 residues)/HCA3 (130-) N86Y/W91S mutant (unknown origin) expressed in HEK293 cells incubated for 90 mins by IP1 accumulation assay; type: cell-based; conditions: Homo sapiens
[5] = molecular target: T1, Hydroxycarboxylic acid receptor 1; assay: Agonist activity at CRE-luc-fused HCA1 (unknown origin) expressed in HEK293 cells co-expressing XtremeGENE HP DNA assessed as inhibition of cAMP production preincubated for 30 mins followed by forskolin addition measured after 6 hrs by Bright-Glo Luciferase Assay; type: functional, cell-based; conditions: filed as agonist, time 6.5 hrs
[6] = test system: Hydroxycarboxylic acid receptor 1 (Homo sapiens), Q9BXC0 [C6A]; assay: Agonist activity at CRE-luc-fused HCA1 C6A mutant (unknown origin) expressed in HEK293 cells co-expressing XtremeGENE HP DNA assessed as inhibition of cAMP production preincubated for 30 mins followed by forskolin addition measured after 6 hrs by Bright-Glo Luciferase Assay; type: cell-based; conditions: time 6.5 hrs
Hydroxycarboxylic acid receptor 1 (Homo sapiens), Q9BXC0 [C6A], sequence (Q9BXC0 whole entry C6A, the tested form may be a part): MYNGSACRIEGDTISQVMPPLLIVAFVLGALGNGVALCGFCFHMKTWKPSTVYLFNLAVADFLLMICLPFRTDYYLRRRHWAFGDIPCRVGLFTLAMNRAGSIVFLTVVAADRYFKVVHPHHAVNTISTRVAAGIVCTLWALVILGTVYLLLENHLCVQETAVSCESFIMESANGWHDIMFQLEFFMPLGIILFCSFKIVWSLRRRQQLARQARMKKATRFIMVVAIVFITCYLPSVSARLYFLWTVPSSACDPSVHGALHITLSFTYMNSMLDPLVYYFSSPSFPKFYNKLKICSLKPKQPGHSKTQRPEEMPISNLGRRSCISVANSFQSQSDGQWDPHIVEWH

[7] = test system: Hydroxycarboxylic acid receptor 1 (Homo sapiens), Q9BXC0 [C7A]; assay: Agonist activity at CRE-luc-fused HCA1 C7A mutant (unknown origin) expressed in HEK293 cells co-expressing XtremeGENE HP DNA assessed as inhibition of cAMP production preincubated for 30 mins followed by forskolin addition measured after 6 hrs by Bright-Glo Luciferase Assay; type: cell-based; conditions: time 6.5 hrs
Hydroxycarboxylic acid receptor 1 (Homo sapiens), Q9BXC0 [C7A], sequence (Q9BXC0 whole entry C7A, the tested form may be a part): as the sequence (Q9BXC0 whole entry C6A, the tested form may be a part) above, with A6C, C7A counted along it

[8] = test system: Hydroxycarboxylic acid receptor 1 (Homo sapiens), Q9BXC0 [C88A]; assay: Agonist activity at CRE-luc-fused HCA1 C88A mutant (unknown origin) expressed in HEK293 cells co-expressing XtremeGENE HP DNA assessed as inhibition of cAMP production preincubated for 30 mins followed by forskolin addition measured after 6 hrs by Bright-Glo Luciferase Assay; type: cell-based; conditions: time 6.5 hrs
Hydroxycarboxylic acid receptor 1 (Homo sapiens), Q9BXC0 [C88A], sequence (Q9BXC0 whole entry C88A, the tested form may be a part): as the sequence (Q9BXC0 whole entry C6A, the tested form may be a part) above, with A6C, C88A counted along it

[9] = test system: Hydroxycarboxylic acid receptor 1 (Homo sapiens), Q9BXC0 [Y74A]; assay: Agonist activity at CRE-luc-fused HCA1 Y74A mutant (unknown origin) expressed in HEK293 cells co-expressing XtremeGENE HP DNA assessed as inhibition of cAMP production preincubated for 30 mins followed by forskolin addition measured after 6 hrs by Bright-Glo Luciferase Assay; type: cell-based; conditions: time 6.5 hrs
Hydroxycarboxylic acid receptor 1 (Homo sapiens), Q9BXC0 [Y74A], sequence (Q9BXC0 whole entry Y74A, the tested form may be a part): as the sequence (Q9BXC0 whole entry C6A, the tested form may be a part) above, with A6C, Y74A counted along it

[10] = test system: Hydroxycarboxylic acid receptor 1 (Homo sapiens), Q9BXC0 [E166A]; assay: Agonist activity at CRE-luc-fused HCA1 E166A mutant (unknown origin) expressed in HEK293 cells co-expressing XtremeGENE HP DNA assessed as inhibition of cAMP production preincubated for 30 mins followed by forskolin addition measured after 6 hrs by Bright-Glo Luciferase Assay; type: cell-based; conditions: time 6.5 hrs
Hydroxycarboxylic acid receptor 1 (Homo sapiens), Q9BXC0 [E166A], sequence (Q9BXC0 whole entry E166A, the tested form may be a part): as the sequence (Q9BXC0 whole entry C6A, the tested form may be a part) above, with A6C, E166A counted along it

[11] = test system: Hydroxycarboxylic acid receptor 1 (Homo sapiens), Q9BXC0 [E166I]; assay: Agonist activity at CRE-luc-fused HCA1 E166I mutant (unknown origin) expressed in HEK293 cells co-expressing XtremeGENE HP DNA assessed as inhibition of cAMP production preincubated for 30 mins followed by forskolin addition measured after 6 hrs by Bright-Glo Luciferase Assay; type: cell-based; conditions: time 6.5 hrs
Hydroxycarboxylic acid receptor 1 (Homo sapiens), Q9BXC0 [E166I], sequence (Q9BXC0 whole entry E166I, the tested form may be a part): as the sequence (Q9BXC0 whole entry C6A, the tested form may be a part) above, with A6C, E166I counted along it

[12] = test system: Hydroxycarboxylic acid receptor 1 (Homo sapiens), Q9BXC0 [R240A]; assay: Agonist activity at CRE-luc-fused HCA1 R240A mutant (unknown origin) expressed in HEK293 cells co-expressing XtremeGENE HP DNA assessed as inhibition of cAMP production preincubated for 30 mins followed by forskolin addition measured after 6 hrs by Bright-Glo Luciferase Assay; type: cell-based; conditions: time 6.5 hrs
Hydroxycarboxylic acid receptor 1 (Homo sapiens), Q9BXC0 [R240A], sequence (Q9BXC0 whole entry R240A, the tested form may be a part): as the sequence (Q9BXC0 whole entry C6A, the tested form may be a part) above, with A6C, R240A counted along it

[13] = test system: Hydroxycarboxylic acid receptor 1 (Homo sapiens), Q9BXC0 [R71A]; assay: Agonist activity at CRE-luc-fused HCA1 R71A mutant (unknown origin) expressed in HEK293 cells co-expressing XtremeGENE HP DNA assessed as inhibition of cAMP production preincubated for 30 mins followed by forskolin addition measured after 6 hrs by Bright-Glo Luciferase Assay; type: cell-based; conditions: time 6.5 hrs
Hydroxycarboxylic acid receptor 1 (Homo sapiens), Q9BXC0 [R71A], sequence (Q9BXC0 whole entry R71A, the tested form may be a part): as the sequence (Q9BXC0 whole entry C6A, the tested form may be a part) above, with A6C, R71A counted along it

[14] = test system: Hydroxycarboxylic acid receptor 1 (Homo sapiens), Q9BXC0 [Y75A]; assay: Agonist activity at CRE-luc-fused HCA1 Y75A mutant (unknown origin) expressed in HEK293 cells co-expressing XtremeGENE HP DNA assessed as inhibition of cAMP production preincubated for 30 mins followed by forskolin addition measured after 6 hrs by Bright-Glo Luciferase Assay; type: cell-based; conditions: time 6.5 hrs
Hydroxycarboxylic acid receptor 1 (Homo sapiens), Q9BXC0 [Y75A], sequence (Q9BXC0 whole entry Y75A, the tested form may be a part): as the sequence (Q9BXC0 whole entry C6A, the tested form may be a part) above, with A6C, Y75A counted along it

[15] = test system: Hydroxycarboxylic acid receptor 1 (Homo sapiens), Q9BXC0 [R99A]; assay: Agonist activity at CRE-luc-fused HCA1 R99A mutant (unknown origin) expressed in HEK293 cells co-expressing XtremeGENE HP DNA assessed as inhibition of cAMP production preincubated for 30 mins followed by forskolin addition measured after 6 hrs by Bright-Glo Luciferase Assay; type: cell-based; conditions: time 6.5 hrs
Hydroxycarboxylic acid receptor 1 (Homo sapiens), Q9BXC0 [R99A], sequence (Q9BXC0 whole entry R79A, the tested form may be a part): as the sequence (Q9BXC0 whole entry C6A, the tested form may be a part) above, with A6C, R79A counted along it

[16] = test system: Hydroxycarboxylic acid receptor 1 (Homo sapiens), Q9BXC0 [H261A]; assay: Agonist activity at CRE-luc-fused HCA1 H261A mutant (unknown origin) expressed in HEK293 cells co-expressing XtremeGENE HP DNA assessed as inhibition of cAMP production preincubated for 30 mins followed by forskolin addition measured after 6 hrs by Bright-Glo Luciferase Assay; type: cell-based; conditions: time 6.5 hrs
Hydroxycarboxylic acid receptor 1 (Homo sapiens), Q9BXC0 [H261A], sequence (Q9BXC0 whole entry H261A, the tested form may be a part): as the sequence (Q9BXC0 whole entry C6A, the tested form may be a part) above, with A6C, H261A counted along it

[17] = test system: Hydroxycarboxylic acid receptor 1 (Homo sapiens), Q9BXC0 [H261F]; assay: Agonist activity at CRE-luc-fused HCA1 H261F mutant (unknown origin) expressed in HEK293 cells co-expressing XtremeGENE HP DNA assessed as inhibition of cAMP production preincubated for 30 mins followed by forskolin addition measured after 6 hrs by Bright-Glo Luciferase Assay; type: cell-based; conditions: time 6.5 hrs
Hydroxycarboxylic acid receptor 1 (Homo sapiens), Q9BXC0 [H261F], sequence (Q9BXC0 whole entry H261F, the tested form may be a part): as the sequence (Q9BXC0 whole entry C6A, the tested form may be a part) above, with A6C, H261F counted along it

[18] = test system: Hydroxycarboxylic acid receptor 1 (Homo sapiens), Q9BXC0 [Y268A]; assay: Agonist activity at CRE-luc-fused HCA1 Y268A mutant (unknown origin) expressed in HEK293 cells co-expressing XtremeGENE HP DNA assessed as inhibition of cAMP production preincubated for 30 mins followed by forskolin addition measured after 6 hrs by Bright-Glo Luciferase Assay; type: cell-based; conditions: time 6.5 hrs
Hydroxycarboxylic acid receptor 1 (Homo sapiens), Q9BXC0 [Y268A], sequence (Q9BXC0 whole entry Y268A, the tested form may be a part): as the sequence (Q9BXC0 whole entry C6A, the tested form may be a part) above, with A6C, Y268A counted along it

[19] = test system: HEK293; assay: Agonist activity at HCA3 (1 to 129 residues)/HCA2 (130-)(unknown origin) expressed in HEK293 cells incubated for 90 mins by IP1 accumulation assay; type: cell-based; conditions: Homo sapiens
[20] = test system: HEK293; assay: Agonist activity at HCA3 (1 to 129 residues)/HCA2 (130-) Y86N/S91W mutant (unknown origin) expressed in HEK293 cells incubated for 90 mins by IP1 accumulation assay; type: cell-based; conditions: Homo sapiens, filed as agonist

T1 sequence (Q9BXC0 whole entry, the tested form may be a part): as the sequence (Q9BXC0 whole entry C6A, the tested form may be a part) above, with A6C counted along it

EC50 [1]: 1000 µM
SMILES: CC(O)C(=O)O (stereo not given) [LACTIC ACID]

SMILES: CC1CCC(C(=O)Nc2nc(-c3cccs3)c(CC(=O)N3CCN(C)CC3)s2)CC1 (stereo not given)
EC50 [1]: ~0.05 µM

EC50 [1]: ~184 µM
SMILES: O=C(O)c1cccc(O)c1 [3-HYDROXYBENZOIC ACID]

SMILES: CCCCCC(O)CC(=O)O (stereo not given)
Activity [2]: inactive | Activity [3]: Active | Activity [4]: inactive

Activity [5]: Active | Activity [6]: inactive | Activity [7]: inactive | Activity [8]: inactive | Activity [9]: inactive | Activity [10]: inactive | Activity [11]: inactive | Activity [12]: inactive | EC50 [1]: ~150 µM | Activity [13]: inactive | Activity [14]: inactive | Activity [15]: inactive | Activity [16]: inactive | Activity [17]: inactive | Activity [18]: inactive
SMILES: O=C(O)c1cc(O)cc(O)c1 [3,5-DIHYDROXYBENZOIC ACID]

SMILES: CC(C)(Cc1nc(-c2ccc(O)cn2)no1)C(=O)NC1=C(C(=O)O)CCCC1
Activity [2]: inactive | Activity [19]: inactive | Activity [20]: Active

SMILES: O=C(O)c1cc(O)cc(Cl)c1
EC50 [1]: ~16 µM
